Assay results: patent US20070004658A1, “Method and means for treatment of osteoarthritis” (priority 2004, published 2007)

Tested on: Normal human articular chondrocytes (NHAC's)
Assay: Aggrecan induction, Alcian blue stain assay
Format: cell-based
Settings: primary human chondrocytes 12 days post infection, FIG. 5
Description: A second assay to screen for chondrocyte anabolic factors is developed by monitoring the levels of aggrecan, another major constituent of cartilage. In this assay, glycosaminoglycans on aggrecan are stained by Alcian blue. NHACs are seeded in 384 well plates and 1 day after plating infected with individual Ad-siRNA from the SilenceSelect™ collection. […] Using Ad-BMP2 as a positive control, we confirm in a series of experiments that several parameters optimized for the ColII cELISA assay are also applicable for the Alcian blue stain assay for aggrecan. These parameters include cell seeding density, MOIs of control viruses, duration of infection, and the day of readout.
NHAC's are seeded on day 0 at 1500 cells/well of a 384 well black-plate with clear bottom in 60 μl of DMEM/F12, containing 10% FBS-HI and Pen/Strep and infected the next day with 2.5 μl of Ad-BMP2 or Ad-eGFP; at an MOI of 2000. After 7 days, 10 μl of a 50 μg/ml 2-Phospho-L-ascorbic acid in assay culture medium is added to each well. […] After replacing 50% ethanol/3% acetic acid with 70% ethanol/3% acetic acid, each individual well is photographed with a SONY CCD camera, images are analyzed using a Galapagos Alcian blue quantification algorithm based on the separation of the blue signal through a color threshold procedure after a noise reduction filter. […]

## GGTGTATGGGCTCATGTAC (adenoviral siRNA, target sequence only, chemistry not fully specified) [Ad-siRNA targeting FZD1]
  aggrecan levels (Alcian blue staining): does not seem to induce Alcian blue staining
